In ChEMBL document CHEMBL4725259 (Bioorg Med Chem, 2020) one finds IC50, Activity and inhibition data, which are given here for two molecules.

In assay [1] the target is T1, Vasopressin V2 receptor (Homo sapiens, UniProt P30518). Briefly: Antagonist activity at human AVPR2 by PathHunter beta-arrestin assay.
In assay [2] the target is T2, CX3C chemokine receptor 1 (Homo sapiens) (UniProt P49238).
T2 sequence (whole entry): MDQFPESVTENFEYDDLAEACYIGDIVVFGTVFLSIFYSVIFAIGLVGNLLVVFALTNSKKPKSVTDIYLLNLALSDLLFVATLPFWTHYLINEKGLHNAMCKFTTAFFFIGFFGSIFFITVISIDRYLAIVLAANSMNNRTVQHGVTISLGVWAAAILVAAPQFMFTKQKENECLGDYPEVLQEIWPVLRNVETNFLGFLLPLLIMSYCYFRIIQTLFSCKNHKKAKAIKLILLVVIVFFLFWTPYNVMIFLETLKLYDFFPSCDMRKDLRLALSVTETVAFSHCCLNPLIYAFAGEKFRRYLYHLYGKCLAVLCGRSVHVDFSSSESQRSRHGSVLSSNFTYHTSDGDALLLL
The experiment in a line: Agonist activity at human CX3CR1 expressed in CHO-K1 cells at 20 uM by PathHunter beta-arrestin assay relative to control. The format is cell-based.

Assay [3] deals with T1, Vasopressin V2 receptor. The experiment in a line: Antagonist activity at human AVPR2 at 20 uM by PathHunter beta-arrestin assay relative to control. The conditions noted are these: filed as antagonist.
The target in assay [4] is D(2) dopamine receptor (Homo sapiens) (UniProt P14416). Briefly: Agonist activity at human DRD2L expressed in CHO-K1 cells at 20 uM by PathHunter beta-arrestin assay relative to control. The format is cell-based.
D(2) dopamine receptor (Homo sapiens), sequence (P14416 whole entry): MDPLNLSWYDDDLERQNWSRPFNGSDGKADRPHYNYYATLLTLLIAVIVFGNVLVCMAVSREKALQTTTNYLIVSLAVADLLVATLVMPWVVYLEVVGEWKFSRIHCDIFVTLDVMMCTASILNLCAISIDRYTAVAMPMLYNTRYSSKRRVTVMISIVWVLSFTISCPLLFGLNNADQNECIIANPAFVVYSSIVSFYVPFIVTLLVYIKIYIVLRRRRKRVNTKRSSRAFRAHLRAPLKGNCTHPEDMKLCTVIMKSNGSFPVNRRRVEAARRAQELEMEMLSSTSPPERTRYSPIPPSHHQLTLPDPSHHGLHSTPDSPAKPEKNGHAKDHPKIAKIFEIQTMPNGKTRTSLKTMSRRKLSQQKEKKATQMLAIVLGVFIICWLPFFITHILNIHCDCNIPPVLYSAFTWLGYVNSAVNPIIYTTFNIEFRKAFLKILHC
Assay [5] has as its target C-X-C chemokine receptor type 4 (Homo sapiens, UniProt P61073). Briefly: Agonist activity at human CXCR4 expressed in mouse C2C12 cells at 20 uM by PathHunter beta-arrestin assay relative to control. The format is cell-based.
The target of assay [6] is T3, Prolactin-releasing peptide receptor (Homo sapiens) (UniProt P49683).
T3 sequence (whole entry): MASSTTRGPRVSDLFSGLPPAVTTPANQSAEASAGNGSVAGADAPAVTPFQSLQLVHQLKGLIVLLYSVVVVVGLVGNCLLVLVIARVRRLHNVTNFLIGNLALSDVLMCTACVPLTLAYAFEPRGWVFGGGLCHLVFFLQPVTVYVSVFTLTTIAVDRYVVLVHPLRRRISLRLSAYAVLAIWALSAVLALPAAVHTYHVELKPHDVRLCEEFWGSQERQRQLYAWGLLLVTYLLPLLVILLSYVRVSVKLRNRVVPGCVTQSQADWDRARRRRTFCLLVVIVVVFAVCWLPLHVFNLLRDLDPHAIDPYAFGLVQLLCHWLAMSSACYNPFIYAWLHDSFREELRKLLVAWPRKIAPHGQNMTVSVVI
The experiment in a line: Agonist activity at human PRLHR expressed in CHO-K1 cells at 20 uM by PathHunter beta-arrestin assay relative to control. The format is cell-based.

Assay [7] concerns the target C-C chemokine receptor type 8 (Homo sapiens, UniProt P51685). The experiment in a line: Antagonist activity at human CCR8 expressed in CHO-K1 cells at 20 uM by PathHunter beta-arrestin assay relative to control. The format is cell-based. The conditions noted are these: filed as antagonist.
Assay [8] deals with T4, Oxytocin receptor (Homo sapiens) (UniProt P30559).
T4 sequence (whole entry): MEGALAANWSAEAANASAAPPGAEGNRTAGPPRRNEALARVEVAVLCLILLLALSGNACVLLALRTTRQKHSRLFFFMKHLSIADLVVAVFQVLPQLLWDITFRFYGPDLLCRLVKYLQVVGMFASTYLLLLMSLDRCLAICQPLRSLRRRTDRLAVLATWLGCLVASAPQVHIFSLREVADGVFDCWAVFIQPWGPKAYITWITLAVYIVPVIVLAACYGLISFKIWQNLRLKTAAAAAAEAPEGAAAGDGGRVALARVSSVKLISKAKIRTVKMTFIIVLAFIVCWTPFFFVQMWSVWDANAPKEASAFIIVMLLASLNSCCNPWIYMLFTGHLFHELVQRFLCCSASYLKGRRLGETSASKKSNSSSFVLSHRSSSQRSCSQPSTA
Briefly: Antagonist activity at human OXTR expressed in CHO-K1 cells at 20 uM by PathHunter beta-arrestin assay relative to control. The format is cell-based. The conditions noted are these: filed as antagonist.

The target in another assay is T5, Oxytocin receptor (Homo sapiens, UniProt P30559).
T5 sequence (P30559 whole entry): T4 sequence (whole entry)
The experiment in a line: Antagonist activity at human OXTR expressed in CHO-K1 cells by PathHunter beta-arrestin assay. The format is cell-based.

In assay [9] the target is T6, 5-hydroxytryptamine receptor 2C (Homo sapiens, UniProt P28335).
T6 sequence (P28335 whole entry): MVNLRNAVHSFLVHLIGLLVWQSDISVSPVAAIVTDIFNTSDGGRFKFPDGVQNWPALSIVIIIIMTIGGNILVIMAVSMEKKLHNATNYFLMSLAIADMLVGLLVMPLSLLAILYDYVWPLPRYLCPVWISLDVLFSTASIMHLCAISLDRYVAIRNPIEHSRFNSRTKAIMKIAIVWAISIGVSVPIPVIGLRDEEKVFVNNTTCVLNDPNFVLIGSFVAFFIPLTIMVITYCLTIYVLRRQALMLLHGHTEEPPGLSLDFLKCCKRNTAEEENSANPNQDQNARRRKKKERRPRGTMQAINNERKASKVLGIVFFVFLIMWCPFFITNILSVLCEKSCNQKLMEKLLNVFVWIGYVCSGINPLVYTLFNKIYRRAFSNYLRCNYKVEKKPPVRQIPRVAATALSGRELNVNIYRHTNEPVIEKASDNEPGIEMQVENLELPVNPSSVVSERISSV
Briefly: Antagonist activity at HTR2C in human U2OS cells by PathHunter beta-arrestin assay. The format is cell-based.

In assay [10] the target is T7, C-C chemokine receptor type 3 (Homo sapiens, UniProt P51677).
T7 sequence (P51677 whole entry): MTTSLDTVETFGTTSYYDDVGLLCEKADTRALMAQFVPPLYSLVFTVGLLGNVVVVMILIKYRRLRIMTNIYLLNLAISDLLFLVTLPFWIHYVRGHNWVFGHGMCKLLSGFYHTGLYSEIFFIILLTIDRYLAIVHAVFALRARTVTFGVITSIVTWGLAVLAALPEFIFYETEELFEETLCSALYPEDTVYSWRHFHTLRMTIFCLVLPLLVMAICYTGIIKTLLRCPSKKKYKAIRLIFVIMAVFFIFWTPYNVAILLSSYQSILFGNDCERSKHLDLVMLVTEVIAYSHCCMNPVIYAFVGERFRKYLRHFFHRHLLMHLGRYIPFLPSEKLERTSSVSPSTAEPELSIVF
Briefly: Antagonist activity at human CCR3 expressed in CHO-K1 cells by PathHunter beta-arrestin assay. The format is cell-based.

Active and inactive are the calls of the source. The rule behind the calls is not given here.

T1 sequence (P30518 whole entry): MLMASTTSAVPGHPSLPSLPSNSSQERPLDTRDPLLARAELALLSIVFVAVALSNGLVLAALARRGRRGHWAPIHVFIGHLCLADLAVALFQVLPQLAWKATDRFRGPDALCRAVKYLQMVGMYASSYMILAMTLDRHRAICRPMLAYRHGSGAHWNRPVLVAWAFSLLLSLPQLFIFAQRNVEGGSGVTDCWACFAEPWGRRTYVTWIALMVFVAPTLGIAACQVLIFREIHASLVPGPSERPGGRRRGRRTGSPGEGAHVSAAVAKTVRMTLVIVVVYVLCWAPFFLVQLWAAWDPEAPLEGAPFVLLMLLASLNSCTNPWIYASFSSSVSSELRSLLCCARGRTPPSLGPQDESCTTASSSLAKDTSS
C-X-C chemokine receptor type 4, sequence (P61073 whole entry): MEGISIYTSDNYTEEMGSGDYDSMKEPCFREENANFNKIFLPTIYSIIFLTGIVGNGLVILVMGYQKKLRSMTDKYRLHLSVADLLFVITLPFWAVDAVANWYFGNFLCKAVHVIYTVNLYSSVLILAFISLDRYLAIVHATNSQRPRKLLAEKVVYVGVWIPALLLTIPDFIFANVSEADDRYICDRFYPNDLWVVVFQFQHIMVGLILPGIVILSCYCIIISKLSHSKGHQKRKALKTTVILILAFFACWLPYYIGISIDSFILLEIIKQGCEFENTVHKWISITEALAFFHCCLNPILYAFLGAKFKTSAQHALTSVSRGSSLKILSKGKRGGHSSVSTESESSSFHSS
C-C chemokine receptor type 8, sequence (P51685 whole entry): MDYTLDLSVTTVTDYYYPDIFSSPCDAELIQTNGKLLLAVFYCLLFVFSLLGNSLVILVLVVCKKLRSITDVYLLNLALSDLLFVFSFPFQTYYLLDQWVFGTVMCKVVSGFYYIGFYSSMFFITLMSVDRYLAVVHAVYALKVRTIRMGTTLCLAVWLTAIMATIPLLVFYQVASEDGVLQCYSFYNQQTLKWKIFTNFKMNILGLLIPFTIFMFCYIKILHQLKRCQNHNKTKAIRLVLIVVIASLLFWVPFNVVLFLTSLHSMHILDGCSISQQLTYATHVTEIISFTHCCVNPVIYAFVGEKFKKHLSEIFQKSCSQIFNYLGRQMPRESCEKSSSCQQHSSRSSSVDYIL

Turning to `COC(=O)[C@@H]1[C@H]2C[C@@H]3N(CC[C@@]34C(=O)N(Cc3cccc(OC)c3)c3ccccc34)C[C@@H]2CC[C@@H]1OCc1cccc(OC)c1`, the IC50 (commonly the midpoint of a concentration-inhibition curve) against Vasopressin V2 receptor [1] is “Dose-dependent effect”; at Vasopressin V2 receptor [1] (read-out: IC50), 459 nM; at Oxytocin receptor it was 1160 nM. Moreover, the outcome in assay [2], in assay [4], in assay [5] and in assay [6] was inactive. Moreover, the inhibition (in general, the drop in the measured response relative to a control, in per cent) at Vasopressin V2 receptor [3] worked out at 83%; in assay [7] it was 88%; in [8] it was 97%.
As to `COC(=O)[C@@H]1[C@H]2C[C@@H](c3[nH]c4ccccc4c3CCn3cc(-c4cccc(Cl)c4)nn3)N(C#N)C[C@@H]2CC[C@@H]1O`, the result in assay [2], in assay [4], in assay [5] and in assay [6] was inactive. In addition, the inhibition came out at 7% against Vasopressin V2 receptor [3], 90% in [7] and 9% in [8]. Besides, the IC50 in [9] worked out at 180 nM; in assay [10], 8300 nM.
